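A five-concentration, 48-hour dose response in 96-well plates underlies each endpoint, interpolated linearly between surrounding concentrations. The concentration for 50% growth inhibition is given as GI50. Definition used: TGI = concentration required for complete inhibition of growth.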
Key:
Test in all cases: inhibition of tumour cell growth, NCI panel, 48 h
[1] = test system: NCI-H522 lung
[2] = test system: CAKI-1 renal
[3] = test system: MOLT-4 leukemia
[4] = test system: M14 melanoma
[5] = test system: HT29 colon
[6] = test system: SF-539 CNS
[7] = test system: HOP-92 NSCLC
[8] = test system: SK-MEL-28 melanoma
[9] = test system: MDA-MB-435
[10] = test system: PC-3 prostate
[11] = test system: TK-10 renal
[12] = test system: RPMI-8226 leukemia
[13] = test system: SK-MEL-2 melanoma
[14] = test system: NCI-H23 lung
[15] = test system: SK-MEL-5 melanoma
[16] = test system: T-47D breast
[17] = test system: A498 renal
[18] = test system: COLO 205 colon
[19] = test system: MALME-3M melanoma
[20] = test system: OVCAR-3 ovarian
[21] = test system: IGROV1 ovarian
[22] = test system: BT-549 breast
[23] = test system: LOX IMVI melanoma
[24] = test system: ACHN renal
[25] = test system: NCI-H226 lung
[26] = test system: UACC-62 melanoma
[27] = test system: HS 578T breast
[28] = test system: MCF7 breast
[29] = test system: CCRF-CEM leukemia

Question: O=C(CCCCCCNC(=O)C(O)(O)C(F)(F)F)Nc1ccc(-c2ccccc2)cc1 was tested. Which TGI [1] did it give?
Answer: The TGI was 20.5 µM.

Question: And the GI50 [2]?
Answer: The GI50 was 5.74 µM.

Question: And the TGI [2]?
Answer: The TGI was 17.5 µM.

Question: And the GI50 [3]?
Answer: Its GI50 is 1.32 µM.

Question: What about the TGI [3] of the same compound?
Answer: The TGI was greater than 33.2 µM.

Question: What about the GI50 [4] of the same compound?
Answer: The GI50 was 3.82 µM.

Question: And the TGI [4]?
Answer: Its TGI is 12.5 µM.

Question: What about the GI50 [5] of the same compound?
Answer: The GI50 was 3.77 µM.

Question: And the TGI [5]?
Answer: Its TGI is greater than 33.2 µM.

Question: And the GI50 [6]?
Answer: Its GI50 is 4.61 µM.

Question: What about the TGI [6] of the same compound?
Answer: Its TGI is 13 µM.

Question: And the GI50 [7]?
Answer: Its GI50 is 0.74 µM.

Question: And the TGI [7]?
Answer: Its TGI is 4.18 µM.

Question: What about the GI50 [8] of the same compound?
Answer: The GI50 was 2.09 µM.

Question: What about the TGI [8] of the same compound?
Answer: Its TGI is 8.52 µM.

Question: And the GI50 [9]?
Answer: Its GI50 is 3.55 µM.

Question: And the TGI [9]?
Answer: Its TGI is 32.4 µM.

Question: And the GI50 [10]?
Answer: Its GI50 is 3.78 µM.

Question: What about the TGI [10] of the same compound?
Answer: The TGI was 19 µM.

Question: And the GI50 [11]?
Answer: Its GI50 is 1.63 µM.

Question: What about the TGI [11] of the same compound?
Answer: Its TGI is greater than 33.2 µM.

Question: And the GI50 [12]?
Answer: The GI50 was 2.32 µM.

Question: And the TGI [12]?
Answer: Its TGI is greater than 33.2 µM.

Question: And the GI50 [13]?
Answer: Its GI50 is 3.31 µM.

Question: What about the TGI [13] of the same compound?
Answer: Its TGI is 8.97 µM.

Question: What about the GI50 [14] of the same compound?
Answer: Its GI50 is 4.28 µM.

Question: What about the TGI [14] of the same compound?
Answer: Its TGI is 13.6 µM.

Question: And the GI50 [15]?
Answer: Its GI50 is 1.94 µM.

Question: What about the TGI [15] of the same compound?
Answer: The TGI was 6.27 µM.

Question: And the GI50 [16]?
Answer: The GI50 was 2.96 µM.

Question: What about the TGI [16] of the same compound?
Answer: Its TGI is 25.3 µM.

Question: What about the GI50 [17] of the same compound?
Answer: Its GI50 is 0.7 µM.

Question: And the TGI [17]?
Answer: Its TGI is 6.41 µM.

Question: And the GI50 [18]?
Answer: The GI50 was 4.03 µM.

Question: And the TGI [18]?
Answer: Its TGI is 11.8 µM.

Question: What about the GI50 [19] of the same compound?
Answer: The GI50 was 1.6 µM.

Question: And the TGI [19]?
Answer: The TGI was 10.2 µM.

Question: And the GI50 [20]?
Answer: The GI50 was 3.39 µM.

Question: What about the TGI [20] of the same compound?
Answer: The TGI was 8.2 µM.

Question: And the GI50 [21]?
Answer: Its GI50 is 3.9 µM.

Question: And the TGI [21]?
Answer: Its TGI is 10.6 µM.

Question: What about the GI50 [22] of the same compound?
Answer: Its GI50 is 4.21 µM.

Question: What about the TGI [22] of the same compound?
Answer: The TGI was 13.2 µM.

Question: What about the GI50 [23] of the same compound?
Answer: The GI50 was 1.96 µM.

Question: And the TGI [23]?
Answer: The TGI was 6.29 µM.

Question: What about the GI50 [24] of the same compound?
Answer: Its GI50 is 2.85 µM.

Question: What about the TGI [24] of the same compound?
Answer: Its TGI is 9.22 µM.

Question: What about the GI50 [25] of the same compound?
Answer: Its GI50 is 7.55 µM.

Question: What about the TGI [25] of the same compound?
Answer: Its TGI is 26.6 µM.

Question: What about the GI50 [26] of the same compound?
Answer: Its GI50 is 1.31 µM.

Question: And the TGI [26]?
Answer: Its TGI is 5.39 µM.

Question: And the GI50 [27]?
Answer: Its GI50 is 4.15 µM.

Question: What about the TGI [27] of the same compound?
Answer: Its TGI is 25.3 µM.

Question: And the GI50 [28]?
Answer: Its GI50 is 5.57 µM.

Question: What about the TGI [28] of the same compound?
Answer: The TGI was 30 µM.

Question: What about the GI50 [29] of the same compound?
Answer: The GI50 was 1.84 µM.

Question: What about the TGI [29] of the same compound?
Answer: The TGI was greater than 33.2 µM.

— PubChem BioAssay (NCI)
